Publication PMC9021288 (Nature Communications, 2022)
“And” between values parts separate entries of the source, which are not always exact repeats. Equal values may be shown once. Read-outs that look alike come from different tables or passages of the source.

Key:
[1] = tested on: P. falciparum NF54 asexual blood-stage parasites; test: 72-h asexual blood-stage replication assay (SYBR Green); type: cell-based, Plasmodium falciparum; set-up: key to asexual blood stages growth, dose-response: % growth; DMSO control = 100%, DHA/epoxomicin-treated = no growth
Experimental: Replication assays were performed using a SYBR Green method as described previously. Briefly, asynchronous parasites were diluted to 0.83% parasitemia, 3% hematocrit in 30 µl medium, and added to 30 µl of diluted compounds in medium (0.1% DMSO final concentration) in black 384-wells plates. After a 72-h incubation, 30 µl of SYBR Green diluted in lysis buffer was added according to the manufacturer’s protocol (Life Technologies). Fluorescence intensity was measured on a BioTek Synergy 2 Plate Reader after 1-h incubation and was normalized to a DMSO control (100% growth) and DHA- or epoxomicin-treatment (no growth). […] Parasite survival was assessed by flow cytometry on an Accuri C6 (BD Biosciences) with BD C6 Plus software using SYBR Green and MitoTracker Deep Red FM (Life Technologies) as nuclear stain and vital dye, respectively, and data were analyzed using FlowJo (10.5.0). […] Luminescence was measured after 72 h using the Renilla-Glo(R) Luciferase Assay System (Promega E2750) and the GlomAX® Discover Multimode Microplate Reader (Promega). The luminescence values were normalized to DMSO vehicle (100% growth) and 200 nM chloroquine-treated (no growth) samples as controls.
Dose-response assays were analyzed by a nonlinear regression using a four-parameter model and the least squares method to find the best fit. One-way Analysis of variance (ANOVA) was performed using the Bonferroni’s Multiple Comparison Test. For the majority of experiments, 2-4 biological replicates were performed. Typically, 2 replicates were performed for screening activities, and a minimum of 3 replicates are performed for other experiments unless stated otherwise.

[2] = tested on: P. falciparum NF54-HGL gametocytes; test: Gametocyte viability assay (72 h, luminescence); type: cell-based, Plasmodium falciparum
Experimental: Gametocyte viability assays on NF54-HGL parasites were performed using an adapted high-throughput protocol as previously described[15],[64]. In short, asexual blood-stage parasite cultures were set up at 1% parasitemia in a semi-automated shaker system at 5% hematocrit. From day four until day eight or nine, parasites were treated with 50 mM N-acetyl glucosamine to eliminate all asexual blood-stage parasites. Subsequently, gametocytes were isolated by a Percoll density gradient centrifugation. At day 11, gametocytes were seeded (5,000 per well) in 30 µl in white 384-well plates containing 30 µl of compounds diluted in medium (0.1% DMSO). After a 72-h incubation, 30 µl of ONE-Glo reagent (Promega) was added according to manufacturer’s protocol and luminescence was quantified using the BioTek Synergy 2 Plate reader. Values were normalized to DMSO- and epoxomicin or dihydroartemisinin-treated controls.

[3] = tested on: cryopreserved human primary hepatocytes; test: in vitro; conditions: human, hepatocytes
Excerpt: Briefly, cryopreserved human primary hepatocytes were thawed and cultured as described above.

[4] = per replicate experiment, read-out: IC50, asexual blood stages
[5] = per replicate experiment, read-out: IC50, sexual blood stages
[6] = asexual blood stages NF54 parasites, read-out: IC50

| Structure (SMILES) | asexual blood stages growth, dose-response ([1]; Log concentration (M) -8.5) | asexual blood stages growth, dose-response ([1]; Log concentration (M) -9) | asexual blood stages growth, dose-response ([1]; Log concentration (M) -9.5) | asexual blood stages growth, dose-response ([1]; Log concentration (M) -10) | IC50 [1, 4] | Sexual blood stages viability, dose-response ([2]; Log concentration (M) -7.5) | Sexual blood stages viability, dose-response ([2]; Log concentration (M) -8) | Sexual blood stages viability, dose-response ([2]; Log concentration (M) -8.5) | Sexual blood stages viability, dose-response ([2]; Log concentration (M) -9) | Sexual blood stages viability, dose-response ([2]; Log concentration (M) -9.5) | Sexual blood stages viability, dose-response ([2]; Log concentration (M) -10) | Human hepatocyte CLint [3] [µl/min/10^6 cells] | asexual blood stages growth, dose-response ([1]; Log concentration (M) -7.5) | asexual blood stages growth, dose-response ([1]; Log concentration (M) -8) | IC50 [2, 5] | IC50 [1, 6] [nM] | also measured |
| --- | --- | --- | --- | --- | --- | --- | --- | --- | --- | --- | --- | --- | --- | --- | --- | --- | --- |
| CC(C)(CO)[C@@H](O)C(=O)NCCNC(=O)c1cc(C#N)ccc1F [MMV976394] | 87.25 and 70.5 | 94.8 and 82.75 | 101.5 and 89.75 | 97.1 and 96.9 | 25 nM and 6.26 nM | 108.15 and 96.65 | 91.85 and 97.6 | 92.6 and 88 | 87.75 and 103.75 | 90 and 115.4 | 90 and 95.6 | 0.2 |  |  |  |  | asexual blood stages growth, dose-response ([1]; Log concentration (M) -6): 3.4 and 4.05; asexual blood stages growth, dose-response ([1]; Log concentration (M) -6.5): 2.2 and 3.95; Sexual blood stages viability, dose-response ([2]; Log concentration (M) -6): 82.2 and 80.4; Sexual blood stages viability, dose-response ([2]; Log concentration (M) -6.5): 89.6 and 82.4; Sexual blood stages viability, dose-response ([2]; Log concentration (M) -7): 87.4 and 85.95 |
| C[C@@H](CNC(=O)[C@H](O)C(C)(C)CO)NC(=O)c1cc(C#N)ccc1F [MMV693182] | 59.8 and 65.55 | 98.45 and 83.35 | 91.35 and 91.95 | 80.55 and 97.8 | 6.21 nM | 49.3 and 51 | 81.9 and 78.35 | 96 and 103.7 | 97.2 and 103.7 | 95 and 105.75 | 95.6 and 117.9 |  | 14.55 and 11.25 | 38 and 38.5 | 21.4 nM |  | IC50 ([1]; Plasmodium falciparum, NF54, 72 h, 72-h asexual growth assay, range of independent experiments, read-out: Asexual blood stage IC50 range (N)): 6.2 to 7.5 nM; IC50 ([1]; Plasmodium falciparum, NF54, asexual blood stages NF54 parasites): 7.5 nM; IC50 ([1]; Plasmodium falciparum, NF54, per replicate experiment, read-out: IC50, asexual blood stages): 7.54 nM; IC50 ([2]; Plasmodium falciparum, NF54, per replicate experiment, read-out: IC50, sexual blood stages): 32.9 nM; IC50 ([2]; Plasmodium falciparum, NF54, sexual viability assay, range of independent experiments, read-out: Gametocyte IC50 range (N)): 21.4 to 32.9 nM |
| C[C@@H](CNC(=O)[C@H](O)C(C)(C)CO)NC(=O)c1cccc(C#N)c1 (stereo in doubt) [MMV884962] | 80.1 and 73.8 | 84.85 and 73.05 | 95.6 and 92.6 | 93.15 and 89.75 | 12.1 nM and 7.41 nM |  |  |  | 92.55 and 54.1 | 110.8 and 104.4 | 97.15 and 70.3 | 0.3 | 11.25 and 6.6 | 55.2 and 32.3 | 5.95 nM and 2.17 nM | 7.4 | asexual blood stages growth, dose-response ([1]; Log concentration (M) -7): 1.15 and 1.45 |
| C[C@@H](CNC(=O)[C@H](O)C(C)(C)CO)NC(=O)c1cccc(F)c1 (stereo in doubt) [MMV1542001] | 33 and 19.45 | 66.7 and 78.5 | 89.15 and 95.45 | 79.7 and 90.9 | 2.45 nM and 1.87 nM |  |  |  | 60.65 and 74.3 | 76.05 and 100.7 | 85.65 and 89 | 0.5 |  |  | 1.98 nM and 9.93 nM | 2.4 |  |
